Experimental data published in the supplement of paper PMC10307832.

Key:
Experiment in all cases: relative viability (nuclei count vs DMSO), 5 days (fraction); higher = more cells survive
MIM1 = compound: CC1=CSC(=NC2CCCCC2)N1/N=C/C3=C(C(=C(C=C3)O)O)O [MIM1]
Procedure, shortened: (§1)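 Viability here means nuclei in treated wells divided by nuclei in vehicle wells, reported as the median across plates. Only plates with control CV below 25% and at least one doubling passed. Lung cancer cell lines in 1536-well plates were exposed to five √10-spaced library-drug doses for 5 days and counted from 4× Hoechst images in MetaXpress.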

Lenalidomide = compound: Nc1cccc2c1CN(C1CCC(=O)NC1=O)C2=O [Lenalidomide]
Procedure, shortened: as §1

Luminespib = compound: CCNC(=O)c1noc(-c2cc(C(C)C)c(O)cc2O)c1-c1ccc(CN2CCOCC2)cc1 [Luminespib]
Procedure, shortened: as §1

Nilotinib = compound: Cc1cn(-c2cc(NC(=O)c3ccc(C)c(Nc4nccc(-c5cccnc5)n4)c3)cc(C(F)(F)F)c2)cn1 [Nilotinib]
Procedure, shortened: as §1

Saracatinib = compound: CN1CCN(CCOc2cc(OC3CCOCC3)c3c(Nc4c(Cl)ccc5c4OCO5)ncnc3c2)CC1 [Saracatinib]
Procedure, shortened: as §1

Work on NCI-H520 yielded a relative viability (MIM1; 0.2 µM) of 1.02, a relative viability (MIM1; 0.6325 µM) of 1.01 and a relative viability (MIM1; 2 µM) of 1.01. For the same cell line, the relative viability (MIM1; 6.325 µM) was 0.859, the relative viability (MIM1; 20 µM) was 0.383 and the relative viability (Lenalidomide; 0.253 µM) was 0.918. The relative viability (Lenalidomide; 0.8 µM) was 0.917, the relative viability (Lenalidomide; 2.53 µM) was 1.14 and the relative viability (Lenalidomide; 8 µM) was 0.784. The relative viability (Luminespib; 0.002 µM) was 1.05, the relative viability (Luminespib; 0.006325 µM) was 1.02 and the relative viability (Luminespib; 0.01 µM, anchor plate) was 0.235. For the same cell line, the relative viability (Luminespib; 0.02 µM) was 0.547, the relative viability (Luminespib; 0.06325 µM) was 0.163 and the relative viability (Luminespib; 0.2 µM) was 0.157. For the same cell line, the relative viability (Nilotinib; 0.001 µM) was 0.86, the relative viability (Nilotinib; 0.01 µM) was 1.21 and the relative viability (Nilotinib; 0.03162 µM) was 0.896. It also gave a relative viability (Nilotinib; 0.1 µM) of 0.949, a relative viability (Saracatinib; 0.02 µM) of 1.01 and a relative viability (Saracatinib; 0.6325 µM) of 0.897. It also gave a relative viability (Saracatinib; 2 µM) of 0.494.
NCI-H522 showed a relative viability (MIM1; 0.2 µM) of 1.13, a relative viability (MIM1; 0.6325 µM) of 0.893 and a relative viability (MIM1; 2 µM) of 0.865. It also gave a relative viability (MIM1; 6.325 µM) of 0.859, a relative viability (MIM1; 20 µM) of 0.607 and a relative viability (Lenalidomide; 0.253 µM) of 0.896. For the same cell line, the relative viability (Lenalidomide; 0.8 µM) was 0.816, the relative viability (Lenalidomide; 2.53 µM) was 1.07 and the relative viability (Lenalidomide; 8 µM) was 0.886. For the same cell line, the relative viability (Luminespib; 0.002 µM) was 0.945, the relative viability (Luminespib; 0.006325 µM) was 0.935 and the relative viability (Luminespib; 0.01 µM, anchor plate) was 1.16. For the same cell line, the relative viability (Luminespib; 0.02 µM) was 0.73, the relative viability (Luminespib; 0.06325 µM) was 0.617 and the relative viability (Luminespib; 0.2 µM) was 0.391. The relative viability (Nilotinib; 0.003162 µM) was 0.974, the relative viability (Nilotinib; 0.01 µM) was 0.996 and the relative viability (Nilotinib; 0.03162 µM) was 0.89. It also gave a relative viability (Nilotinib; 0.1 µM) of 0.722, a relative viability (Saracatinib; 0.02 µM) of 0.917 and a relative viability (Saracatinib; 0.2 µM) of 0.705. The relative viability (Saracatinib; 0.6325 µM) was 0.907 and the relative viability (Saracatinib; 2 µM) was 0.732.
For NCI-H596, the relative viability (MIM1; 0.2 µM) was 1.11, the relative viability (MIM1; 0.6325 µM) was 1.19 and the relative viability (MIM1; 2 µM) was 0.88. It also gave a relative viability (MIM1; 6.325 µM) of 0.939, a relative viability (MIM1; 20 µM) of 0.685 and a relative viability (Lenalidomide; 0.253 µM) of 0.906. It also gave a relative viability (Lenalidomide; 0.8 µM) of 0.704, a relative viability (Lenalidomide; 2.53 µM) of 1.09 and a relative viability (Lenalidomide; 8 µM) of 0.723. For the same cell line, the relative viability (Luminespib; 0.002 µM) was 1.06, the relative viability (Luminespib; 0.006325 µM) was 0.901 and the relative viability (Luminespib; 0.01 µM, anchor plate) was 1.09. For the same cell line, the relative viability (Luminespib; 0.02 µM) was 0.684, the relative viability (Luminespib; 0.06325 µM) was 0.919 and the relative viability (Luminespib; 0.2 µM) was 0.921. It also gave a relative viability (Nilotinib; 0.001 µM) of 0.939, a relative viability (Nilotinib; 0.003162 µM) of 0.982 and a relative viability (Nilotinib; 0.01 µM) of 1.05. For the same cell line, the relative viability (Nilotinib; 0.03162 µM) was 0.771, the relative viability (Nilotinib; 0.1 µM) was 0.848 and the relative viability (Saracatinib; 0.02 µM) was 1.12. For the same cell line, the relative viability (Saracatinib; 0.2 µM) was 0.817, the relative viability (Saracatinib; 0.6325 µM) was 0.906 and the relative viability (Saracatinib; 2 µM) was 0.815.
With NCI-H647 the relative viability (MIM1; 0.2 µM) was 0.933, the relative viability (MIM1; 0.6325 µM) was 0.951 and the relative viability (MIM1; 2 µM) was 0.51. It also gave a relative viability (MIM1; 6.325 µM) of 0.821, a relative viability (MIM1; 20 µM) of 0.3 and a relative viability (Lenalidomide; 0.253 µM) of 0.993. It also gave a relative viability (Lenalidomide; 0.8 µM) of 0.753, a relative viability (Lenalidomide; 2.53 µM) of 1.16 and a relative viability (Lenalidomide; 8 µM) of 0.904. For the same cell line, the relative viability (Luminespib; 0.002 µM) was 0.953, the relative viability (Luminespib; 0.006325 µM) was 0.935 and the relative viability (Luminespib; 0.01 µM, anchor plate) was 0.174. For the same cell line, the relative viability (Luminespib; 0.02 µM) was 0.674, the relative viability (Luminespib; 0.06325 µM) was 0.0941 and the relative viability (Luminespib; 0.2 µM) was 0.092. The relative viability (Nilotinib; 0.001 µM) was 0.889, the relative viability (Nilotinib; 0.003162 µM) was 1.17 and the relative viability (Nilotinib; 0.01 µM) was 1.35. For the same cell line, the relative viability (Nilotinib; 0.03162 µM) was 0.729, the relative viability (Nilotinib; 0.1 µM) was 0.878 and the relative viability (Saracatinib; 0.02 µM) was 0.967. It also gave a relative viability (Saracatinib; 0.2 µM) of 0.868, a relative viability (Saracatinib; 0.6325 µM) of 0.858 and a relative viability (Saracatinib; 2 µM) of 0.572.
Work on NCI-H650 yielded a relative viability (MIM1; 0.2 µM) of 1.05, a relative viability (MIM1; 0.6325 µM) of 0.756 and a relative viability (MIM1; 2 µM) of 0.917. The relative viability (MIM1; 6.325 µM) was 0.856, the relative viability (MIM1; 20 µM) was 0.382 and the relative viability (Lenalidomide; 0.253 µM) was 1.03. The relative viability (Lenalidomide; 2.53 µM) was 1.21, the relative viability (Lenalidomide; 8 µM) was 0.845 and the relative viability (Luminespib; 0.002 µM) was 0.95. It also gave a relative viability (Luminespib; 0.006325 µM) of 0.843, a relative viability (Luminespib; 0.01 µM, anchor plate) of 0.812 and a relative viability (Luminespib; 0.02 µM) of 0.692. For the same cell line, the relative viability (Luminespib; 0.06325 µM) was 0.538, the relative viability (Luminespib; 0.2 µM) was 0.124 and the relative viability (Nilotinib; 0.001 µM) was 0.908. For the same cell line, the relative viability (Nilotinib; 0.003162 µM) was 0.811, the relative viability (Nilotinib; 0.01 µM) was 0.805 and the relative viability (Nilotinib; 0.03162 µM) was 0.658. For the same cell line, the relative viability (Nilotinib; 0.1 µM) was 0.654, the relative viability (Saracatinib; 0.02 µM) was 1.12 and the relative viability (Saracatinib; 0.2 µM) was 0.863. The relative viability (Saracatinib; 0.6325 µM) was 0.965 and the relative viability (Saracatinib; 2 µM) was 0.926.
With NCI-H661 the relative viability (MIM1; 0.2 µM) was 0.991, the relative viability (MIM1; 0.6325 µM) was 1.01 and the relative viability (MIM1; 2 µM) was 0.941. The relative viability (MIM1; 6.325 µM) was 0.746, the relative viability (MIM1; 20 µM) was 0.406 and the relative viability (Lenalidomide; 0.253 µM) was 0.917. The relative viability (Lenalidomide; 0.8 µM) was 0.934, the relative viability (Lenalidomide; 2.53 µM) was 1.03 and the relative viability (Lenalidomide; 8 µM) was 0.958. For the same cell line, the relative viability (Luminespib; 0.002 µM) was 1.01, the relative viability (Luminespib; 0.006325 µM) was 0.969 and the relative viability (Luminespib; 0.01 µM, anchor plate) was 0.916. It also gave a relative viability (Luminespib; 0.02 µM) of 0.778, a relative viability (Luminespib; 0.06325 µM) of 0.754 and a relative viability (Luminespib; 0.2 µM) of 0.325. The relative viability (Nilotinib; 0.001 µM) was 0.951, the relative viability (Nilotinib; 0.003162 µM) was 1.06 and the relative viability (Nilotinib; 0.01 µM) was 1.09. It also gave a relative viability (Nilotinib; 0.03162 µM) of 0.949, a relative viability (Nilotinib; 0.1 µM) of 0.948 and a relative viability (Saracatinib; 0.02 µM) of 1.02. The relative viability (Saracatinib; 0.2 µM) was 0.977, the relative viability (Saracatinib; 0.6325 µM) was 0.926 and the relative viability (Saracatinib; 2 µM) was 0.669.
Work on NCI-H727 yielded a relative viability (MIM1; 0.2 µM) of 0.833, a relative viability (MIM1; 0.6325 µM) of 0.823 and a relative viability (MIM1; 2 µM) of 0.878. It also gave a relative viability (MIM1; 6.325 µM) of 0.723, a relative viability (MIM1; 20 µM) of 0.452 and a relative viability (Lenalidomide; 0.253 µM) of 0.868. It also gave a relative viability (Lenalidomide; 0.8 µM) of 0.927, a relative viability (Lenalidomide; 2.53 µM) of 0.908 and a relative viability (Lenalidomide; 8 µM) of 0.857. It also gave a relative viability (Luminespib; 0.002 µM) of 0.95, a relative viability (Luminespib; 0.006325 µM) of 0.738 and a relative viability (Luminespib; 0.01 µM, anchor plate) of 0.369. The relative viability (Luminespib; 0.02 µM) was 0.64, the relative viability (Luminespib; 0.06325 µM) was 0.308 and the relative viability (Luminespib; 0.2 µM) was 0.287. It also gave a relative viability (Nilotinib; 0.001 µM) of 0.787, a relative viability (Nilotinib; 0.01 µM) of 0.938 and a relative viability (Nilotinib; 0.03162 µM) of 0.694. It also gave a relative viability (Nilotinib; 0.1 µM) of 0.614, a relative viability (Saracatinib; 0.02 µM) of 0.874 and a relative viability (Saracatinib; 0.2 µM) of 0.765. The relative viability (Saracatinib; 0.6325 µM) was 0.863 and the relative viability (Saracatinib; 2 µM) was 0.612.
